Here are results for one molecule from patent US11040056B2, “Benzimidazoles that enhance the activity of oligonucleotides” (The University of North Carolina at Chapel Hill, priority 2018, dated 2021).

What all share (type): cell-based
The subject of one data set is HeLa Luc 705 cells. Nature of the data set: Confocal microscopy of endomembrane permeability and oligonucleotide localization. Conditions: 2 h. As for the experimental part: FIG. 5A-5B. Effect on endomembrane permeability. FIG. 5A: HeLa Luc 705 cells (50 000) were seeded into glass-bottom dishes and incubated at 37° C. for attachment. Alexa 488-Dextran 10K (200 μg/mL) or TAMRA SSO 623 (2.5 μM) were added into the medium and the cells incubated for 24 h. Cells were washed with PBS and then placed back in the medium and treated with UNC2383 for 2 h or maintained as controls. Cells were rinsed after drug treatment. Live cells were imaged with an Olympus FV1200 or a Zeiss LSM710 confocal microscope. For the studies with Alexa 488 Dextran, the controls are shown in image panels a and b while cells treated with 10 μM UNC2383 are in image panels c and d. […] Images e and f are composites of TAMRA, Hoechst, and DIC images, and the pink coloration in f indicates overlap of the TAMRA and Hoechst fluorescence. Images are typical of three independent assays. Intensity settings were identical for fluorescence images with or without UNC2383. FIG. 5B quantitates the TAMRA fluorescence in the nucleus for controls versus cells treated with 5 μM UNC2383, as measured using Fiji software, with Hoechst stain used to delineate the nucleus (N=12).
FIG. 6. Confocal images of compound effects on nuclear distribution of a fluorescent oligonucleotide. […] Nuclei lacking fluorescence are indicated with gray arrows. […]
FIG. 7A-7B. […] Composite images showing TAMRA fluorescence, GFP, and DIC are provided. […]
Effects of UNC2383 on endosome stability were monitored in cell culture models as previously described. […] Live cells were imaged by fluorescence confocal microscopy with or without treatment with UNC2383 or its analogs. […] Co-localization of TAMRA labeled SSO 623 with marker proteins was quantitated using Fiji (ImageJ) software and expressed as a Manders' Correlation Coefficient. […] EGFP protein expression was monitored by immunostaining with an anti-EGFP antibody (Abcam) using techniques previously described. (3) EGFP immunostaining was analyzed using a Leica SP2 confocal microscope with acquisition parameters constant throughout the study: images were processed with Adobe Photoshop software. […]

The subject of another data set is HeLa Luc705 cells. Nature of the data set: Alamar Blue cytotoxicity assay. Here is the method: (§1) FIG. 1B-1E. Effects with SSOs. FIG. 1B Structure of UNC2383. FIG. 1C Compound 2383 enhances SSO effects. Cells were incubated in 24-well plates with 100 nM SSO623 or its mismatched control (MM) for 16 h in DMEM+10% FBS, rinsed and then treated with various concentrations of 2383 for 2 h. The cells were then rinsed and incubation continued for an additional 4 h in DMEM+10% FBS. Cells were rinsed twice in PBS and luciferase activity (RLU) and cell protein determined. The larger round symbol indicates the MM oligonucleotide. Means+/−SE. N=3. FIG. 1D Kinetics of 2383 action. Cells were preloaded with 100 nM SSO623 and then exposed to 2383 for various periods after which the compound was removed. The cells were further incubated and then luciferase and protein determined. The total time of incubation in each case was 6 h. FIG. 1E Cytotoxicity of 2383. HeLa Luc705 or NIH-3T3-MDR cells were exposed to 2383 as in (FIG. 1C) then incubated for 24 h in DMEM plus 10% FBS and tested using the Alamar Blue cytotoxicity assay. Means+/−SE. N=3.
(§2) FIG. 3. Effect and Cytotoxicity of Analogs. The effect of selected UNC2383 analogs on luciferase induction by SSO623 was measured as described in Methods and in the legend of FIG. 1B-1E. Cytotoxicity was measured using the Alamar Blue method as in FIG. 1E. MM10 is the effect of 10 uM compound in the presence of a mismatched oligonucleotide. Means and SE. N=3.
(§3) SSO-mediated luciferase induction assays were conducted as previously described. (18) In short, HeLaLuc705 cells in 24 well culture plates were preincubated with SSO623 followed by brief treatment with the small molecule; at intervals thereafter, luciferase activity and protein content were determined. ASO mediated inhibition of MDR1 gene expression utilized an Alexa 488 labeled anti-P-glycoprotein antibody and flow cytometry to measure Pgp expression as described. (20) The anti-MDR1 sequence is 5′-CCATCccgacctcgcGCTCC-3′(SEQ ID NO: 5) (all phosphorothiopate with 2-O-Me residues in capitals). Cytotoxicity of 2383 was monitored using the Alamar Blue assay. (30)

Data set [1] can be described thus: Alamar Blue cytotoxicity assay. Conditions: human, HeLa Luc705 cells; Alamar Blue cytotoxicity; read-out: TC50. As for the experimental part:
as §1, §2, §3
(Alamar Blue is a resazurin reagent that responds to reducing activity.)

Where only a bound is given, the exact number is not on record here.

Turning to `O=C(Nc1nc2ccccc2n1CCN1CCCC1)c1cc2cc(Cl)ccc2o1` [UNC2383], the “relocalization of TAMRA labeled SSO to the nucleus” value with HeLa Luc 705 cells (5 μM) is “partial but substantial relocalization”. The “colocalization of TAMRA-SSO with late endosomes and lysosomes (Manders' Correlation Coefficient)” value in the data set on HeLa Luc 705 cells (5 μM, GFP-Rab7, GFP-LAMP1) is “substantially reduced”. The “release of Alexa 488-Dextran from vesicular entrapment” value in the data set on HeLa Luc 705 cells (10 μM) was “partial release”. Further, the “window between effective and toxic concentrations compared to UNC10217938” value with HeLa Luc705 cells is “narrower”. Further, in the data set with HeLa Luc705 cells (2 h exposure, then 24 h, FIG. 1E), the “concentrations showing little toxicity” value was no more than 10 µM. Moreover, the TC50/EC50 with HeLa Luc705 cells (ratio of cytotoxicity TC50 to luciferase induction EC50) is listed as 7.5. Moreover, the CC50 at 2 h in data set [1] came out at 15 µM.
